These results are taken from patent US20130065818A1, “Arylamide Compounds And Compositions And Uses Thereof” (POLYMEDIX, priority 2006, published 2013).

For series [1], the system named is fluoroquinolone-resistant, methicillin-resistant Staphylococcus aureus (K950). The experiment in a line: NZW rabbit keratitis model, corneal colony counts. As to conditions: for Statistical comparison of corneal colony counts (< = significantly fewer colony counts): abraded (removed) epithelium, drops every 15 min. The class given is in vivo. The source says:
One purpose of the following experiments was to compare the efficacy of 1% Oligomer 2, 0.5% Oligomer 2, and 5% vancomycin in the treatment of a fluoroquinolone-resistant, methicillin-resistant Staphylococcus aureus infection in the NZW rabbit keratitis model with or without intact corneal epithelia.
Nothing was done to the right eyes.
One purpose of the following experiments was to compare the efficacy of 0.25% Oligomer 2, with and without 0.005% benzalkonium chloride, and 5% vancomycin in the treatment of a fluoroquinolone-resistant, methicillin-resistant Staphylococcus aureus infection in the NZW rabbit keratitis model with or without intact corneal epithelia. The 0.005% benzalkonium chloride has been added to try to increase the penetration of 0.25% Oligomer 2 through the corneal epithelium.
One purpose of the following experiments was to determine the efficacy of 0.25% Oligomer 4, with and without 200 μM Farnesol, and 200 μM Farnesol in the treatment of a fluoroquinolone-resistant and methicillin-resistant Staphylococcus aureus infection in the NZW rabbit keratitis model with or without intact corneal epithelia. The 200 μM Farnesol has been added to try to increase the efficacy and penetration of 0.25% Oligomer 4 through the corneal epithelium.

Series [2] is described as follows: Draize ocular toxicity scoring, NZW rabbit ocular toxicity model. The format is in vivo. Particulars: rabbit, in vivo. On the procedure:
The ocular toxicity of several concentrations of Oligomer 2, using the Draize ocular toxicity scoring system, in the NZW rabbit ocular toxicity model was carried out.
Rabbits were treated in both eyes with (37 μl) topical drops every 30 minutes for 3 hours (7 total doses). One rabbit was treated with Tris-Buffered Saline and served as a negative control. Rabbits were evaluated in a masked fashion for ocular toxicity by an ophthalmologist with specialty training in corneal and external disease. Ocular toxicity was evaluated using the Draize scoring system after treatment on Day 0 and on Day 3 post treatment for any delayed toxicity. (Draize et al., J. Pharmacol. Exp. Ther., 1944, 82, 377-390).
A brief summary of the Draize scoring system for ocular lesions is provided below
Total Maximum Score: 110 represents the sum of all scores obtained for the cornea, iris and conjunctivae.
The ocular toxicity of several formulations of Oligomer 4 with and without farnesol, using the Draize ocular toxicity scoring system, in the NZW rabbit ocular toxicity model was carried out.
Rabbits were treated in both eyes with (37 μl) topical drops every 30 minutes for 3 hours (7 total doses). One rabbit was treated with Tris-Buffered Saline and served as a negative control. Rabbits were evaluated in a masked fashion for ocular toxicity by an ophthalmologist with specialty training in corneal and external disease 30 minutes after the final dose. Ocular toxicity was evaluated using the Draize scoring system (see above) after treatment on Day 0 and on Day 2 post treatment for any delayed toxicity.

`N=C(N)NCCCCC(=O)Nc1cc(C(F)(F)F)cc(NC(=O)c2cc(C(=O)Nc3cc(C(F)(F)F)cc(NC(=O)CCCCNC(=N)N)c3SCCN)ncn2)c1SCCN` [Oligomer 2]: the “Statistical comparison of corneal colony counts (< = significantly fewer colony counts)” value in series [1] (Ker-1 (Example 9), 19 doses) was “effective”. For the same compound, the “Statistical comparison of corneal colony counts (< = significantly fewer colony counts)” value in series [1] (Ker-2 (Example 10), 21 doses) is recorded as “effective”. For the same compound, the “Effect of addition of 0.005% benzalkonium chloride (BAK) on penetration through the intact corneal epithelium” value in series [1] (Ker-2, 0.25% Oligomer 2) is on record as “did not aid in the penetration”. In addition, the “Penetration of the corneal epithelium into the corneal stroma” value in series [1] (in vivo) is listed as “does not penetrate the corneal epithelium”. Besides, in series [2] (NZW, 0 day), the “I. A. Cornea opacity” value worked out at 0; the “I. B. Area of cornea involved” value is given as 0; the “I. Tot (cornea, A × B × 5)” value was 0. In series [2] (NZW, 3 day), the “I. A. Cornea opacity” value came to 0; the “I. B. Area of cornea involved” value came to 0; the “I. Tot (cornea, A × B × 5)” value came out at 0; the “II. A. Iris” value was determined as 0. In series [2] (NZW, 3 day), the “II. Tot (iris, A × 5)” value was found to be 0; the “III. A. Conjunctivae redness” value was 0; the “III. B. Chemosis” value was determined as 0; the “III. C. Discharge” value was 0. In addition, in series [2] (NZW, 3 day), the “III. Tot (conjunctivae, (A + B + C) × 2)” value worked out at 0 and the “Score (Draize total)” value was 0. In addition, in series [2], the “Dose dependence of ocular toxicity” value is recorded as “dose dependent ocular toxicity” and the “Stinging / acute reactions upon instillation” value is given as “does not sting upon instillation”.
